Laboratory results from ChEMBL document CHEMBL3856233, “Identification of (R)-(2-Chloro-3-(trifluoromethyl)phenyl)(1-(5-fluoropyridin-2-yl)-4-methyl-6,7-dihydro-1H-imidazo[4,5-c]pyridin-5(4H)-yl)methanone (JNJ 54166060), a Small Molecule Antagonist of the P2X7 receptor” (J Med Chem, 2016).
≈ marks a conversion by molar mass, not a printed value.

Legend:
[1] = tested on: Rattus norvegicus; assay: Toxicity in rat assessed as increase in total serum cholesterol at 125 to 250 mg/kg, po administered for 4 days followed by necropsy on day 5 post treatment by histological analysis; assay type: organism-based; settings: in vivo, 96 h
[2] = Half life in cynomolgus monkey at 1 mg/kg, iv by LC/MS/MS analysis; assay type: ADME, organism-based, Macaca fascicularis; settings: in vivo
[3] = target: T1, P2X purinoceptor 7 (Mus musculus, UniProt Q9Z1M0); assay: Antagonist activity at P2X7 receptor in LPS-stimulated mouse whole blood assessed as inhibition of Bz-ATP-induced IL-1beta release incubated for 30 mins after LPS stimulation for 1 hr followed by agonist addition measured after […] by ELISA; assay type: tissue-based
T1 sequence (Q9Z1M0 whole entry): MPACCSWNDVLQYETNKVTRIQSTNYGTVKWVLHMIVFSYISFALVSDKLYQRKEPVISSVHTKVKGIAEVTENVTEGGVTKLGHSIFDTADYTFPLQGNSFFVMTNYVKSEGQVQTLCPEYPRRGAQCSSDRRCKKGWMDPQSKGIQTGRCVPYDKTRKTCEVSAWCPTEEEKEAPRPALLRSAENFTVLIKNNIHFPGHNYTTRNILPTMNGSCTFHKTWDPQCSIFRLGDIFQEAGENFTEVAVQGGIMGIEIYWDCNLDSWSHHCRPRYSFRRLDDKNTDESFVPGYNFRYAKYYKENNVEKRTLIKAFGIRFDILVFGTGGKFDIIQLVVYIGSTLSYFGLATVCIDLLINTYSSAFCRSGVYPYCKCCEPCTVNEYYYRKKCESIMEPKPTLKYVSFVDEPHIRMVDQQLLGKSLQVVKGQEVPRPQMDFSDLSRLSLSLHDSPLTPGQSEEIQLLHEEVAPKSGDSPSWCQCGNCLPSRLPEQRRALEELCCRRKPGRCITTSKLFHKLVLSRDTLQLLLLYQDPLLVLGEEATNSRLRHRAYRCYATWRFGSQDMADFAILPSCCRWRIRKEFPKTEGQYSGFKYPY

[4] = target: T1, P2X purinoceptor 7; assay: Antagonist activity at recombinant mouse P2X7 receptor expressed in human 1321N1 cells assessed as inhibition of Bz-ATP-induced Ca2+ flux preincubated for 30 mins followed by agonist addition measured after 180 sec by calcium-4 dye based FLIPR assay; assay type: cell-based
[5] = Drug metabolism in human liver microsomes assessed as oxidation of imdazopyridine core at 10 uM after 60 mins by LC/MS/MS analysis; assay type: ADME; settings: 1 h
[6] = Oral bioavailability in cynomolgus monkey at 5 mg/kg after 0.033 to 24 hrs by LC/MS/MS analysis; assay type: ADME, organism-based, Macaca fascicularis; settings: in vivo
[7] = Half life in Sprague-Dawley rat at 1 mg/kg, iv by LC/MS/MS analysis; assay type: ADME, organism-based; settings: in vivo
[8] = Tmax in cynomolgus monkey at 5 mg/kg, po after 0.033 to 24 hrs by LC/MS/MS analysis; assay type: ADME, organism-based, Macaca fascicularis; settings: in vivo
[9] = tested on: Rattus norvegicus; assay: Toxicity in rat assessed as induction of central lobular hepatocellular necrosis at 250 mg/kg/day, po administered for 4 days followed by necropsy on day 5 post treatment by histological analysis; assay type: organism-based; settings: in vivo, 96 h
[10] = target: T2, CYP3A4 (Homo sapiens, UniProt P08684); assay: Inhibition of CYP3A4 in human liver microsomes using midazolam as substrate assessed as reduction in 1-OH-midazolam formation at 0.625 uM by LC/MS/MS analysis; assay type: ADME; settings: probe midazolam
T2 sequence (P08684 whole entry): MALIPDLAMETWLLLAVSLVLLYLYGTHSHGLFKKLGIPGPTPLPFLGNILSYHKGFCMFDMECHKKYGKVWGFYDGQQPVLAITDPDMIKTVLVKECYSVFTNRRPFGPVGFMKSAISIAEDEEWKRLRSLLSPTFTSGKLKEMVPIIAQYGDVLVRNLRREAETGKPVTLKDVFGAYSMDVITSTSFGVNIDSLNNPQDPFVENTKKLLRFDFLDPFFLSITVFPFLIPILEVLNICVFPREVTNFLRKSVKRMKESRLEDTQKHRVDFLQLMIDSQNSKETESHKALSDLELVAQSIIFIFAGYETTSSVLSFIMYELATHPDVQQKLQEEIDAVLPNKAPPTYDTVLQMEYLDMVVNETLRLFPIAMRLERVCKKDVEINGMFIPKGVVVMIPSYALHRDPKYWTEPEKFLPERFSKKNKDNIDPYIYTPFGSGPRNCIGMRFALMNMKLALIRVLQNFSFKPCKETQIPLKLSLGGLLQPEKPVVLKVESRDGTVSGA

[11] = target: T2, CYP3A4; assay: Inhibition of CYP3A4 in human liver microsomes using midazolam as substrate assessed as reduction in 1-OH-midazolam formation at 10 uM by LC/MS/MS analysis; assay type: ADME; settings: probe midazolam
[12] = Half life in Beagle dog at 1 mg/kg, iv by LC/MS/MS analysis; assay type: ADME, organism-based, Canis lupus familiaris; settings: in vivo
[13] = Tmax in rat at 1000 mg/kg, po; assay type: ADME, organism-based; settings: in vivo
[14] = tested on: Rattus norvegicus; assay: Ex vivo receptor occupancy at P2X7 receptor in po dosed rat brain hippocampal tissue assessed as plasma concentration required for [3H]-(S)-7-(2-chloro-3-(trifluoromethyl)benzyl)-6-methyl-3-(pyrazin-2-yl)-6,7-dihydro-[1,2,4]triazolo[4,3-a]pyrazin-8(5H)-one displacement after 30 mins; assay type: functional, organism-based
[15] = Oral bioavailability in Sprague-Dawley rat at 5 mg/kg after 0.033 to 24 hrs by LC/MS/MS analysis; assay type: ADME, organism-based; settings: in vivo
[16] = Clearance in Beagle dog at 1 mg/kg, iv after 0.033 to 24 hrs by LC/MS/MS analysis; assay type: ADME, organism-based, Canis lupus familiaris; settings: in vivo
[17] = target: T2, CYP3A4; assay: Inhibition of CYP3A4 in human liver microsomes using midazolam as substrate assessed as reduction in 1-OH-midazolam formation at 2.5 uM by LC/MS/MS analysis; assay type: ADME; settings: probe midazolam
[18] = Oral bioavailability in Beagle dog at 5 mg/kg after 0.033 to 24 hrs by LC/MS/MS analysis; assay type: ADME, organism-based, Canis lupus familiaris; settings: in vivo
[19] = Permeability from apical to basolateral side in human Caco2 cells at 10 uM after 60 mins by LC/MS/MS analysis; assay type: ADME, cell-based; settings: Caco-2, read-out: permeability
[20] = Cmax in cynomolgus monkey at 5 mg/kg, po after 0.033 to 24 hrs by LC/MS/MS analysis; assay type: ADME, organism-based, Macaca fascicularis; design: dose 5 mg/kg, route oral; settings: in vivo
[21] = target: T2, CYP3A4; assay: Inhibition of CYP3A4 in human liver microsomes using midazolam as substrate assessed as reduction in 4-OH-midazolam formation at 0.313 uM by LC/MS/MS analysis; assay type: ADME; settings: probe midazolam
[22] = Clearance in Sprague-Dawley rat at 1 mg/kg, iv after 0.033 to 24 hrs by LC/MS/MS analysis; assay type: ADME, organism-based; settings: in vivo
[23] = tested on: Rattus norvegicus; assay: Ex vivo receptor occupancy at P2X7 receptor in po dosed rat brain hippocampal section assessed as displacement of [3H]-(S)-7-(2-chloro-3-(trifluoromethyl)benzyl)-6-methyl-3-(pyrazin-2-yl)-6,7-dihydro-[1,2,4]triazolo[4,3-a]pyrazin-8(5H)-one after 30 mins; assay type: functional
[24] = Permeability from basolateral to apical side in human Caco2 cells at 10 uM after […] by LC/MS/MS analysis; assay type: ADME, cell-based; settings: Caco-2, read-out: permeability
[25] = target: T2, CYP3A4; assay: Inhibition of CYP3A4 in human liver microsomes using midazolam as substrate assessed as reduction in 1-OH-midazolam formation at 1.25 uM by LC/MS/MS analysis; assay type: ADME; settings: probe midazolam
[26] = target: T2, CYP3A4; assay: Inhibition of CYP3A4 in human liver microsomes using midazolam as substrate assessed as reduction in 1-OH-midazolam formation at 0.313 uM by LC/MS/MS analysis; assay type: ADME; settings: probe midazolam
[27] = tested on: Rattus norvegicus; assay: Toxicity in rat assessed as central lobular hepatocellular degeneration at 250 mg/kg/day, po administered for 4 days followed by necropsy on day 5 post treatment by histological analysis; assay type: organism-based; settings: in vivo, 96 h
[28] = Solubility of compound in phosphate buffer at pH 2 at room temperature after 3 days
[29] = Cmax in Sprague-Dawley rat at 5 mg/kg, po after 0.033 to 24 hrs by LC/MS/MS analysis; assay type: ADME, organism-based; design: dose 5 mg/kg, route oral; settings: in vivo
[30] = Volume of distribution at steady state in cynomolgus monkey at 1 mg/kg, iv after 0.033 to 24 hrs by LC/MS/MS analysis; assay type: ADME, organism-based, Macaca fascicularis; settings: in vivo, read-out: Vdss
[31] = Tmax in Sprague-Dawley rat at 5 mg/kg, po after 0.033 to 24 hrs by LC/MS/MS analysis; assay type: ADME, organism-based; settings: in vivo

In the case of `C[C@@H]1c2ncn(-c3ccc(F)cn3)c2CCN1C(=O)c1cccc(C(F)(F)F)c1Cl`, the Activity [1] is reported as “Toxic”, the half-life [2] is reported as 4.2 h and the IC50 [3] is reported as 160 nM. For the same compound, the IC50 [4] was 72 nM, the Drug metabolism [5] was “Metabolite_Detected” and the bioavailability [6] was 54%. The half-life [7] was 1.7 h, the Tmax [8] was 2.3 h and the Activity [9] was “Toxic”. The inhibition at 0.625 µM [10] was 29%, the inhibition at 10 µM [11] was 74% and the half-life [12] was 11.9 h. For the same compound, the Tmax [13] was 24 h, the fIC50 [14] was 15 nM and the EC50 ([14]; Rattus norvegicus, P2X7, Brain/Plasma) was 0.125 µg/mL (≈ 0.285 µM). It also gave a bioavailability [15] of 55%, a clearance [16] of 5.5 mL/min/kg and an inhibition at 2.5 µM [17] of 52%. The bioavailability [18] was greater than 100%, the Papp A→B at 1 h, 10 µM [19] was 65 ×10⁻⁶ cm/s and the Cmax [20] was 389 ng/mL. For the same compound, the inhibition at 0.313 µM [21] was 0.1%, the clearance [22] was 30 mL/min/kg and the ED50 [23] was 2.3 mg/kg. For the same compound, the inhibition [23] was “Dose-dependent effect”, the Papp B→A at 10 µM [24] was 35 ×10⁻⁶ cm/s and the inhibition at 1.25 µM [25] was 41%. The inhibition at 0.313 µM [26] was 20%, the Activity [27] was “Toxic” and the solubility at 72 h [28] was greater than 400 µM. The Cmax [29] was 375 ng/mL, the Vd [30] was 2.1 L/kg and the Tmax [31] was 1 h.
